# System: valvular interstitial cells (VIC)
# Assay: Calcium content of valvular interstitial cells cultured in pro-calcifying medium containing inorganic phosphate (o-cresolphtalein-based assay)
# Assay type: cell-based, human
# Details: VIC in procalcifying conditions containing inorganic phosphate (Pi), 10 days, compared to non-treated VIC
# Experimental: Valvular endothelial cells (VEC), isolated from human aortic valves, were cultured in a cell perfusion system to assess ET-1 production in different fluid flow shear stress conditions. In addition, valvular interstitial cells (VIC) were cultured in a pro-calcifying culture medium containing inorganic phosphate (Pi) with or without antagonists of either the ETA or ETB receptor antagonists or with the agonist of the ETB receptor IRL 1620 during 10 days. Aortic valves from rats were also cultured in ex vivo and stimulated with ET-1 antagonists. Calcium content was assessed using an o-cresolphtalein-based assay and fluorescence by Osteosens. VEC prepro-ET-1 and VIC osteogenic mRNA expression levels were evaluated by RTqPCR.
substance,measurement,setting,value
"N-Succinyl-[Glu9, Alal U5]-Endothelin 1 fragment 8-21 [IRL-1620]",Calcium content of VIC,,decreased the calcium content of VIC
same,Calcium content of VIC,listed as IRL 1620,decreases their calcium content

# — patent US20250325636A1, “USE OF ENDOTHELIN RECEPTOR TYPE B AGONISTS FOR THE TREATMENT OF AORTIC VALVE STENOSIS” (INSTITUT NATIONAL DE LA SANTÉ ET DE LA RECHERCHE MÉDICALE, priority 2022, published 2025)
